Literature values in US20100068291A1, “Oral Medicament Based on a Proton Pump Inhibitor” (FLAMEL TECHNOLOGIES, S.A., priority 2005, published 2010).

Settings: in vivo

COc1ccc2[nH]c([S+]([O-])Cc3ncc(C)c(OC)c3C)nc2c1 (stereo not shown) [omeprazole]
plasma half-life: 0.5-1 H
